According to patent EP0206747B1, “1,4-Dihydropyridine derivatives useful in the treatment of cardiovascular disorders, and a process for producing the derivatives” (WARNER-LAMBERT COMPANY, priority 1985, dated 1986):

Each molecule was assayed on Isolated Guinea Pig Atria (assay: In vitro myocardial inotropic activity in isolated guinea pig atria). Settings: @ 10^-5M; isolated guinea pig left atria electrically stimulated at 1.5 Hz, PSS 30°C.
Format: cell-based, guinea pigs
Method: Test for In Vitro Myocardial Inotropic Activity
in Isolated Guinea Pig Atria
Adult male guinea pigs weighing 300-400 g are reserpenized (2000 units i.p.) and, after ten minutes, are killed by cervical dislocation. The hearts are quickly removed and placed in a physiological salt solution (PSS) containing: 118 mM NaCI, 4.8 mM KCI, 2.4 mM CaCI, 1.2 mM MgS04, 1.0 mM NaH2P04, 11.1 m dextrose, and 27.2 mM NaHC03, maintained at pH 7.4 and 30°C. After removing all superficial blood, the hearts are perfused via the aorta to remove any blood from the coronary arteries. After five to ten minutes of perfusion, the left atria are dissected and mounted vertically in a 50 ml, water-jacketed bather containing PSS at 30°C and continuously oxygenated with 95% O2/5% CO2. The left atria are electrically stimulated at 1.5 Hz. The tissues are equilibrated for 30 minutes and washed with fresh PSS. The stimulation voltage is adjusted to 20% above the threshold and tension adjusted to Lmax (the muscle length at which tension development is maximal). The tissues are then equilibrated for an additional 30 minutes, after which the compounds to be examined are added to the tissue bather. […] The compounds are added in full or half-log concentration increments, usually over a concentration range of 1 x 10-^8 to 1 x 10-^4M. The muscles are generally allowed to assume a new steady-state contractile response before each subsequent addition of drug.
Using this procedure the inotropic activity of preferred compounds of the present invention is shown as found in the following Table 1. The reference calcium antagonist has also been tested for comparison.

With `CCOC(=O)C1=C(C[S+]([O-])c2ccccc2)NC(C)=C(C#N)C1c1ccccc1C(F)(F)F` (single isomer, unassigned) [Example 2 Isomer B, Ethyl 5-cyano-1,4-dihydro-6-methyl-2-[(phenylsulfinyl)methyl]-4-[2-(trifluoromethyl)phenyl]-3-pyridinecarboxylate] the “% Change in Myocardial Contractility (PSCI)” value was “+53%”.

Same assay, conditions: Cavia porcellus, @ 10^-5M; isolated guinea pig left atria electrically stimulated at 1.5 Hz, PSS 30°C; read-out: % Change in Myocardial Contractility (PSCI)

Going from `CCOC(=O)C1=C(C[S+]([O-])c2ccccc2)NC(C)=C(C#N)C1c1cccc([N+](=O)[O-])c1` (stereo not shown) [Example 2B] to `CCOC(=O)C1=C(C[S+]([O-])c2ccccc2)NC(C)=C(C#N)C1c1ccccc1Cl` (stereo not shown) [Example 2D], the activation at 10 µM falls from 30% to 26%.

`CCOC(=O)C1=C(CS(=O)(=O)c2ccccc2Cl)NC(C)=C(C#N)C1c1ccccc1C(F)(F)F` (stereo not shown) [Example 3D] and `CCOC(=O)C1=C(CS(=O)(=O)c2ccccc2C)NC(C)=C(C#N)C1c1ccccc1C(F)(F)F` (stereo not shown) [Example 3C] are the same in activation at 10 µM: 33% for the first, 33% for the second.

Going from `CCOC(=O)C1=C(C[S+]([O-])c2ccccc2)NC(C)=C(C#N)C1c1ccccc1C(F)(F)F` (single isomer, unassigned) [Example 2 Isomer A, Ethyl 5-cyano-1,4-dihydro-6-methyl-2-[(phenylsulfinyl)methyl]-4-[2-(trifluoromethyl)phenyl]-3-pyridinecarboxylate] to `CCOC(=O)C1=C(CS(=O)(=O)c2ccccc2)NC(C)=C(C#N)C1c1ccccc1C(F)(F)F` (stereo not shown) [Example 3A, Ethyl 5-cyano-1,4-dihydro-6-methyl-2-[(phenylsulfonyl)methyl]-4-[2-(trifluoromethyl)phenyl]-3-pyridinecarboxylate], the activation at 10 µM falls from 33% to 26%.
